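48-hour exposure; five concentrations; linearly interpolated endpoints. TGI marks complete inhibition of growth.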
These compounds were tested on MOLT-4 leukemia (assay: DTP human tumour cell line panel, 48 h).
With `CC1=CC(=O)NCCN1C` the TGI was greater than 100 µM.

Each compound was assayed on RXF 393 renal (assay: DTP human tumour cell line panel, 48 h).
For `Cc1cccc(N2C(=O)C(Cl)=C(Cl)C2=O)c1`, the TGI was 30.7 µM. `CCC(C)(O)c1cn(-c2cccc(S(=O)(=O)O)c2)nn1` (stereo unspecified) was tested, and the TGI was greater than 100 µM. `COc1ccc(OC)c(/C=C/NC=O)c1` was tested, and the TGI was greater than 100 µM. In the case of `CC(=O)c1cccc2c1CC1(C2)Cc2ccc3c(c2C1=O)CCC3` (stereo unspecified), the TGI is reported as greater than 100 µM. `Nc1nc(Cl)cc(NCC2(CO)CC(OCc3ccccc3)C2)n1` (stereo unspecified) was tested, and the TGI was greater than 100 µM. For `CC1=CC(=O)NCCN1C`, the TGI was greater than 100 µM.

These compounds were tested on UO-31 renal (assay: DTP human tumour cell line panel, 48 h).
In the case of `Cc1cccc(N2C(=O)C(Cl)=C(Cl)C2=O)c1`, the TGI is reported as greater than 100 µM. With `CCC(C)(O)c1cn(-c2cccc(S(=O)(=O)O)c2)nn1` (stereo unspecified) the TGI was greater than 100 µM. Work on `COc1ccc(OC)c(/C=C/NC=O)c1` yielded a TGI greater than 100 µM. In the case of `CC(=O)c1cccc2c1CC1(C2)Cc2ccc3c(c2C1=O)CCC3` (stereo unspecified), the TGI is reported as greater than 100 µM. `COc1cc(Cc2cc(OC)c(OC)c(OC)c2)ccc1O` was tested, and the TGI was greater than 100 µM. For `Nc1nc(Cl)cc(NCC2(CO)CC(OCc3ccccc3)C2)n1` (stereo unspecified), the TGI was greater than 100 µM. With `CC1=CC(=O)NCCN1C` the TGI was greater than 100 µM.

Each compound was assayed on KM12 colon (assay: DTP human tumour cell line panel, 48 h).
For `Cc1cccc(N2C(=O)C(Cl)=C(Cl)C2=O)c1`, the TGI was greater than 100 µM. `CCC(C)(O)c1cn(-c2cccc(S(=O)(=O)O)c2)nn1` (stereo unspecified) showed a TGI greater than 100 µM. `COc1ccc(OC)c(/C=C/NC=O)c1` showed a TGI greater than 100 µM. Work on `CC(=O)c1cccc2c1CC1(C2)Cc2ccc3c(c2C1=O)CCC3` (stereo unspecified) yielded a TGI greater than 100 µM. Work on `COc1cc(Cc2cc(OC)c(OC)c(OC)c2)ccc1O` yielded a TGI greater than 100 µM. In the case of `Nc1nc(Cl)cc(NCC2(CO)CC(OCc3ccccc3)C2)n1` (stereo unspecified), the TGI is reported as greater than 100 µM. Compound `CC1=CC(=O)NCCN1C` has a TGI greater than 100 µM.

The compounds below were run on MDA-MB-435 (assay: DTP human tumour cell line panel, 48 h).
`CC(=O)c1cccc2c1CC1(C2)Cc2ccc3c(c2C1=O)CCC3` (stereo unspecified) was tested, and the TGI was greater than 100 µM. Work on `Nc1nc(Cl)cc(NCC2(CO)CC(OCc3ccccc3)C2)n1` (stereo unspecified) yielded a TGI greater than 100 µM.

Each compound was assayed on ACHN renal (assay: DTP human tumour cell line panel, 48 h).
Work on `Cc1cccc(N2C(=O)C(Cl)=C(Cl)C2=O)c1` yielded a TGI greater than 74.6 µM. `CCC(C)(O)c1cn(-c2cccc(S(=O)(=O)O)c2)nn1` (stereo unspecified) was tested, and the TGI was greater than 100 µM. `COc1ccc(OC)c(/C=C/NC=O)c1` gave a TGI greater than 100 µM. With `CC(=O)c1cccc2c1CC1(C2)Cc2ccc3c(c2C1=O)CCC3` (stereo unspecified) the TGI was greater than 100 µM. For `COc1cc(Cc2cc(OC)c(OC)c(OC)c2)ccc1O`, the TGI was greater than 100 µM. `Nc1nc(Cl)cc(NCC2(CO)CC(OCc3ccccc3)C2)n1` (stereo unspecified) gave a TGI greater than 100 µM. For `CC1=CC(=O)NCCN1C`, the TGI was greater than 100 µM.

Each compound was assayed on SNB-75 CNS (assay: DTP human tumour cell line panel, 48 h).
For `Cc1cccc(N2C(=O)C(Cl)=C(Cl)C2=O)c1`, the TGI was greater than 100 µM. `CCC(C)(O)c1cn(-c2cccc(S(=O)(=O)O)c2)nn1` (stereo unspecified) gave a TGI greater than 100 µM. Work on `COc1ccc(OC)c(/C=C/NC=O)c1` yielded a TGI greater than 100 µM. Work on `CC(=O)c1cccc2c1CC1(C2)Cc2ccc3c(c2C1=O)CCC3` (stereo unspecified) yielded a TGI greater than 100 µM. Compound `COc1cc(Cc2cc(OC)c(OC)c(OC)c2)ccc1O` has a TGI of 28.6 µM. In the case of `Nc1nc(Cl)cc(NCC2(CO)CC(OCc3ccccc3)C2)n1` (stereo unspecified), the TGI is reported as 85.2 µM. Work on `CC1=CC(=O)NCCN1C` yielded a TGI greater than 100 µM.

What follows are compounds tested on IGROV1 ovarian (assay: DTP human tumour cell line panel, 48 h).
For `Cc1cccc(N2C(=O)C(Cl)=C(Cl)C2=O)c1`, the TGI was greater than 100 µM. Work on `CCC(C)(O)c1cn(-c2cccc(S(=O)(=O)O)c2)nn1` (stereo unspecified) yielded a TGI greater than 100 µM. `COc1ccc(OC)c(/C=C/NC=O)c1` gave a TGI greater than 100 µM. For `CC(=O)c1cccc2c1CC1(C2)Cc2ccc3c(c2C1=O)CCC3` (stereo unspecified), the TGI was greater than 100 µM. For `COc1cc(Cc2cc(OC)c(OC)c(OC)c2)ccc1O`, the TGI was greater than 100 µM. `Nc1nc(Cl)cc(NCC2(CO)CC(OCc3ccccc3)C2)n1` (stereo unspecified) showed a TGI greater than 100 µM. `CC1=CC(=O)NCCN1C` was tested, and the TGI was greater than 100 µM.

These compounds were tested on NCI-H522 lung (assay: DTP human tumour cell line panel, 48 h).
In the case of `Cc1cccc(N2C(=O)C(Cl)=C(Cl)C2=O)c1`, the TGI is reported as 22.7 µM. With `CCC(C)(O)c1cn(-c2cccc(S(=O)(=O)O)c2)nn1` (stereo unspecified) the TGI was greater than 100 µM. Compound `COc1ccc(OC)c(/C=C/NC=O)c1` has a TGI greater than 100 µM. `CC(=O)c1cccc2c1CC1(C2)Cc2ccc3c(c2C1=O)CCC3` (stereo unspecified) gave a TGI greater than 100 µM. `COc1cc(Cc2cc(OC)c(OC)c(OC)c2)ccc1O` showed a TGI of 39.5 µM. Work on `Nc1nc(Cl)cc(NCC2(CO)CC(OCc3ccccc3)C2)n1` (stereo unspecified) yielded a TGI greater than 100 µM. `CC1=CC(=O)NCCN1C` showed a TGI greater than 100 µM.

From PubChem BioAssay (NCI)
